In patent US6632643B2, “Use of α-1,4-glucan lyase for preparation of 1,5-D-hydrofructose” (Danisco A/S, priority 1993, dated 2003):
Marks after values point to notes of the source that are not given here.

Experiments:
[1] = tested on: lyase from M. costata; assay: Relative degrading rates of the lyase from M. costata towards various substrates; format: biochemical, Morchella costata; details: for degradation (AF detectable on TLC plates): incubated for 48 h
[2] = tested on: lyase from M. vulgaris; assay: Relative degrading rates of the lyase from M. vulgaris towards various substrates; format: biochemical, Morchella vulgaris; details: for degradation (AF detectable on TLC plates): incubated for 48 h; for Activity (%) (maltotetraose = 100%): all substrates 10 mg ml^−1
Description: The activity observed for maltotetraose is treated as 100%. The final concentration of all substrates was 10 mg ml^−1.

[3] = tested on: lyase purified from the fungal infected algae; assay: Effect of alcohols on activity and stability of the lyase (AF yield); format: biochemical, fungal infected Gracilariopsis lemaneiformis
Description: 1-propanol, 2-propanol and 1-butanol were tested at the following concentrations (0%, 1%, 5% and 10%).
Ethanol was tested at the following concentrations (0, 1, 3, 5, 7, 9, 11, 13, 15%).

[4] = tested on: α-1,4-glucan lyase from the parasite-free red seaweed Gracilariopsis lemaneiformis; assay: Degradation rates of the Californian algal lyase on various substrates; format: biochemical; details: for AF released: substrate 10 mg/ml, pH 3.8, 40 min at 45° C.
Description: Reaction conditions: The reaction mixture contained 10 mM of HOAc-NaOAc (pH 3.8). The substrate concentration was 10 mg/ml. The final volume was 100 ul after the addition of lyase and water. The reaction time was 40 min at 45° C.

[5] = tested on: lyase from the fungal infected Gracilariopsis lemaneiformis; assay: Reaction rates with glycogen and amylopectin, lyase from fungal infected Gracilariopsis lemaneiformis; format: biochemical

Compound: O=[N+]([O-])c1ccc(OC2OC(CO)C(OC3OC(CO)C(OC4OC(CO)C(OC5OC(CO)C(OC6OC(CO)C(OC7OC(CO)C(OC8OC(CO)C(O)C(O)C8O)C(O)C7O)C(O)C6O)C(O)C5O)C(O)C4O)C(O)C3O)C(O)C2O)cc1 (stereo not shown)
- degradation by the fungal lyase [1]: failed to degrade
- degradation (AF detectable on TLC plates) [1]: no AF detectable
- degradation (AF detectable on TLC plates) [2]: no AF detectable

Compound: 1-butanol
- increase of AF yield ([3]; 5%, after 3-day incubation): 52%
- optimal concentration for AF yield ([3]; tested at 0%, 1%, 5% and 10%): 5%

Compound: 1-propanol
- AF yield ([3]; 1% (v/v), 1 day): 80 µmol
- AF yield ([3]; 1% (v/v), 3 days): 280 µmol
- AF yield ([3]; 1% (v/v), 6 days): 530 µmol
- AF yield ([3]; 1% (v/v), 10 days): 803 µmol
- AF yield ([3]; 5% (v/v), 1 day): 115 µmol
- AF yield ([3]; 5% (v/v), 3 days): 367 µmol
- AF yield ([3]; 5% (v/v), 6 days): 605 µmol
- AF yield ([3]; 5% (v/v), 10 days): 853 µmol
- increase of AF yield ([3]; 5%, after 6 days of incubation): 34%
- AF yield ([3]; 10% (v/v), 1 day): 107 µmol
- AF yield ([3]; 10% (v/v), 3 days): 307 µmol
- AF yield ([3]; 10% (v/v), 6 days): 456 µmol
- AF yield ([3]; 10% (v/v), 10 days): 583 µmol
- optimal concentration for AF yield ([3]; tested at 0%, 1%, 5% and 10%): 5%

Compound: CC(C)O [2-propanol]
- increase of AF yield ([3]; 1%, after 10 days incubation): 20%
- optimal concentration for AF yield ([3]; tested at 0%, 1%, 5% and 10%): 1%

Compound: CCO [Ethanol]
- increase of AF yield ([3]; 3%, 10 days incubation): 16%
- increase of AF yield ([3]; 5%, 7 days incubation): 12%
- optimal concentration for AF yield ([3]; 7 days incubation, tested 0-15%): 5%
- optimal concentration for AF yield ([3]; 10 days incubation, tested 0-15%): 3%

Compound: OC[C@H]1O[C@H](O[C@H]2[C@H](O)[C@@H](O)[C@@H](O[C@H]3[C@H](O)[C@@H](O)[C@@H](O[C@H]4[C@H](O)[C@@H](O)[C@@H](O[C@H]5[C@H](O)[C@@H](O)[C@@H](O[C@H]6[C@H](O)[C@@H](O)C(O)O[C@@H]6CO)O[C@@H]5CO)O[C@@H]4CO)O[C@@H]3CO)O[C@@H]2CO)[C@H](O)[C@@H](O)[C@@H]1O (stereo partly shown) [Maltohexaose, maltohexaose]
- activity (maltotetraose as 100%) ([1]; purified fungal lyase, section B.1.4.3): 97%
- relative degrading rate (maltotetraose = 100%) ([1]; substrate 2 mg/ml): 86.6%
- relative degrading rate (maltotetraose = 100%) ([1]; substrate 4 mg/ml): 98.2%
- relative degrading rate (maltotetraose = 100%) ([1]; substrate 10 mg/ml): 95.9%
- AF released [4]: 826 nmol
- Activity (%) (maltotetraose = 100%) [2]: 92.4%

Compound: OC[C@H]1O[C@H](O[C@H]2O[C@H](CO)[C@@H](O)[C@H](O)[C@H]2O)[C@H](O)[C@@H](O)[C@@H]1O [Trehalose]
- degradation (AF detectable on TLC plates) [1]: no AF detectable
- degradation by the lyase [4]: not able to degrade
- degradation (AF detectable on TLC plates) [2]: no AF detectable

Compound: OC[C@H]1O[C@@H]2O[C@H]3[C@H](O)[C@@H](O)[C@@H](O[C@H]4[C@H](O)[C@@H](O)[C@@H](O[C@H]5[C@H](O)[C@@H](O)[C@@H](O[C@H]6[C@H](O)[C@@H](O)[C@@H](O[C@H]7[C@H](O)[C@@H](O)[C@@H](O[C@H]1[C@H](O)[C@H]2O)O[C@@H]7CO)O[C@@H]6CO)O[C@@H]5CO)O[C@@H]4CO)O[C@@H]3CO [alpha-cyclodextrin]
- degradation (AF detectable on TLC plates) [1]: no AF detectable
- degradation by the lyase [4]: not able to degrade
- degradation (AF detectable on TLC plates) [2]: no AF detectable

Compound: OC[C@H]1O[C@@H]2O[C@H]3[C@H](O)[C@@H](O)[C@@H](O[C@H]4[C@H](O)[C@@H](O)[C@@H](O[C@H]5[C@H](O)[C@@H](O)[C@@H](O[C@H]6[C@H](O)[C@@H](O)[C@@H](O[C@H]7[C@H](O)[C@@H](O)[C@@H](O[C@H]8[C@H](O)[C@@H](O)[C@@H](O[C@H]1[C@H](O)[C@H]2O)O[C@@H]8CO)O[C@@H]7CO)O[C@@H]6CO)O[C@@H]5CO)O[C@@H]4CO)O[C@@H]3CO [beta-cyclodextrin]
- degradation (AF detectable on TLC plates) [1]: no AF detectable
- degradation by the lyase [4]: not able to degrade
- degradation (AF detectable on TLC plates) [2]: no AF detectable

Compound: OC[C@H]1O[C@@H]2O[C@H]3[C@H](O)[C@@H](O)[C@@H](O[C@H]4[C@H](O)[C@@H](O)[C@@H](O[C@H]5[C@H](O)[C@@H](O)[C@@H](O[C@H]6[C@H](O)[C@@H](O)[C@@H](O[C@H]7[C@H](O)[C@@H](O)[C@@H](O[C@H]8[C@H](O)[C@@H](O)[C@@H](O[C@H]9[C@H](O)[C@@H](O)[C@@H](O[C@H]1[C@H](O)[C@H]2O)O[C@@H]9CO)O[C@@H]8CO)O[C@@H]7CO)O[C@@H]6CO)O[C@@H]5CO)O[C@@H]4CO)O[C@@H]3CO [gama-cyclodextrin]
- degradation (AF detectable on TLC plates) [1]: no AF detectable
- degradation by the lyase [4]: not able to degrade
- degradation (AF detectable on TLC plates) [2]: no AF detectable

Compound: OC[C@H]1O[C@H](OC[C@H]2OC(O)[C@H](O)[C@@H](O)[C@@H]2O)[C@H](O)[C@@H](O)[C@@H]1O (stereo partly shown) [isomaltose]
- degradation (AF detectable on TLC plates) [1]: no AF detectable
- degradation by the lyase [4]: not able to degrade
- degradation (AF detectable on TLC plates) [2]: no AF detectable

Compound: OC[C@H]1O[C@H](O[C@H]2[C@H](O)[C@@H](CO)OC(O)[C@@H]2O)[C@H](O)[C@@H](O)[C@@H]1O (stereo partly shown) [nigerose]
- degradation (AF detectable on TLC plates) [1]: no AF detectable
- degradation by the lyase [4]: slow rate
- degradation (AF detectable on TLC plates) [2]: no AF detectable

Compound: OC[C@H]1O[C@H](O[C@@H]2[C@@H](O)[C@@H](O[C@@H]3[C@@H](O)[C@@H](O[C@H]4[C@H](O)[C@@H](CO)OC(O)[C@@H]4O)O[C@H](CO)[C@H]3O)O[C@H](CO)[C@H]2O)[C@H](O)[C@@H](O)[C@@H]1O (stereo partly shown) [nigerotetraose]
- degradation (AF detectable on TLC plates) [1]: no AF detectable
- degradation by the lyase [4]: not able to degrade
- degradation (AF detectable on TLC plates) [2]: no AF detectable

Compound: O=[N+]([O-])c1ccc(O[C@H]2O[C@H](CO)[C@@H](O[C@H]3O[C@H](CO)[C@@H](O[C@H]4O[C@H](CO)[C@@H](O[C@H]5O[C@H](CO)[C@@H](O[C@H]6O[C@H](CO)[C@@H](O[C@H]7O[C@H](CO)[C@@H](O[C@H]8O[C@H](CO)[C@@H](O)[C@H](O)[C@H]8O)[C@H](O)[C@H]7O)[C@H](O)[C@H]6O)[C@H](O)[C@H]5O)[C@H](O)[C@H]4O)[C@H](O)[C@H]3O)[C@H](O)[C@H]2O)cc1 [p-nitrophenyl α-D-maltoheptaose]
- degradation by the fungal lyase [1]: degraded

Compound: OC[C@H]1O[C@H](OC[C@H]2O[C@H](O[C@H]3[C@H](O)[C@@H](O)C(O)O[C@@H]3CO)[C@H](O)[C@@H](O)[C@@H]2O)[C@H](O)[C@@H](O)[C@@H]1O (stereo partly shown) [panose]
- degradation (AF detectable on TLC plates) [1]: no AF detectable
- degradation by the lyase [4]: slow rate
- degradation (AF detectable on TLC plates) [2]: no AF detectable

Compound: Glycogen
- degradation by the fungal lyase [1]: also degraded
- relative degrading rate (maltotetraose = 100%) ([1]; substrate 10 mg/ml): 128.5%
- ratio of relative reaction rates between Glycogen and Amylopectin (%) ([5]; 25 C.): 72.4%
- relative reaction rates ([5]; 25 C.): 0.592^a
- ratio of relative reaction rates between Glycogen and Amylopectin (%) ([5]; 30 C.): 79.8%
- relative reaction rates ([5]; 30 C.): 0.904^a
- ratio of relative reaction rates between Glycogen and Amylopectin (%) ([5]; 45 C.): 158.9%
- relative reaction rates ([5]; 45 C.): 1.861^a
- substrate concentration at which half of the maximal velocity rate was reached [4]: 3.37 mg/mL
- AF released [4]: 592 nmol
- Activity (%) (maltotetraose = 100%) [2]: 183.3%

Compound: Soluble starch
- relative degrading rate (maltotetraose = 100%) ([1]; substrate 10 mg/ml): 92.9%
- Activity (%) (maltotetraose = 100%) [2]: 100.5%

Compound: amylose
- degradation by the fungal lyase [1]: also degraded

Compound: pullulan
- degradation (AF detectable on TLC plates) [1]: no AF detectable
- degradation by the lyase [4]: not able to degrade
- degradation (AF detectable on TLC plates) [2]: no AF detectable
